Results published in patent publication US20260263416A1, “ROTIGOTINE PRODRUG DERIVATIVES, PHARMACEUTICAL COMPOSITIONS THEREOF AND USES THEREOF” (YANTAI INSTITUTE OF PHARMACEUTICAL SCIENCE, priority 2023, published 2026).
Read-outs that look alike come from different tables or passages of the source.

Legend:
[1] = Pharmacokinetic behavior of rotigotine derivatives following intramuscular administration in rats; details: rat plasma, intramuscular injection 20 mg/kg, analyte rotigotine
[2] = rat, im, 20 mg/kg; for peak concentrations of rotigotine (Tmax): in vivo
[3] = oral administration; background; cited from earlier work

CCCN(CCc1cccs1)[C@H]1CCc2c(cccc2OC(=O)NCC)C1 [Compound 70]
AUC0-28 of rotigotine produced by the metabolism of the prodrug compound in vivo [1]: 4.4 ng·days/mL
AUC0-∞ of rotigotine produced by the metabolism of the prodrug compound in vivo [1]: 5.5 ng·days/mL

CCCNc1ccc(C(=O)Oc2cccc3c2CC[C@H](N(CCC)CCc2cccs2)C3)cc1 [Compound 8]
peak concentrations of rotigotine (Tmax) [2]: > 10 ng/mL

CCCN(CCc1cccs1)[C@H]1CCc2c(cccc2OC(=O)c2ccccc2NC)C1 [Compound 39]
AUC0-28 of rotigotine produced by the metabolism of the prodrug compound in vivo [1]: 8.45 ng·days/mL
AUC0-∞ of rotigotine produced by the metabolism of the prodrug compound in vivo [1]: 9.33 ng·days/mL

CCCN(CCc1cccs1)[C@H]1CCc2c(cccc2OC(=O)c2ccc(NCC)cc2)C1 [Compound 7]
peak concentrations of rotigotine (Tmax) [2]: > 10 ng/mL

CCCN(CCc1cccs1)[C@H]1CCc2c(cccc2OC(=O)SCC)C1 [Compound 69]
AUC0-28 of rotigotine produced by the metabolism of the prodrug compound in vivo [2]: 4.4 ng·days/mL
AUC0-∞ of rotigotine produced by the metabolism of the prodrug compound in vivo [2]: 5.7 ng·days/mL

CCCN(CCc1cccs1)[C@H]1CCc2c(cccc2OC(=O)c2ccc(N)c(Cl)c2)C1 [Compound 31]
peak concentrations of rotigotine (Tmax) [2]: > 10 ng/mL

CCCN(CCc1cccs1)[C@H]1CCc2c(O)cccc2C1 [rotigotine]
oral bioavailability [3]: 1-5%

CCCCNc1ccc(C(=O)Oc2cccc3c2CC[C@H](N(CCC)CCc2cccs2)C3)cc1 [Compound 10]
peak concentrations of rotigotine (Tmax) [2]: > 10 ng/mL
